Reference: US8063021B2, “Ketolide anti-infective compounds” (Kosan Biosciences Incorporated, priority 2003, dated 2011)

Key:
[1] = system: S. pneumoniae ATCC 700671; experiment: microdilution assay MIC, S. pneumoniae ATCC 700671; assay type: cell-based, Streptococcus pneumoniae; settings: S. pneumoniae ATCC 700671, erythromycin sensitive strain; average where multiple assays
Protocol: (§1) In Table B, in some instances multiple assays were performed for a compound/strain combination, in which case the reported MIC is the average. S. pneumoniae ATCC 6301, ATCC 700671, and ATCC 49619 and S. aureus ATCC 6538p and ATCC 29213 are erythromycin sensitive strains.

[2] = system: S. pneumoniae ATCC 700906; experiment: microdilution assay MIC, S. pneumoniae ATCC 700906; assay type: cell-based, Streptococcus pneumoniae; settings: S. pneumoniae ATCC 700906, erythromycin A resistant strain; average where multiple assays
Protocol: (§2) In Table B, in some instances multiple assays were performed for a compound/strain combination, in which case the reported MIC is the average.

[3] = system: S. pneumoniae ATCC 700905; experiment: microdilution assay MIC, S. pneumoniae ATCC 700905; assay type: cell-based, Streptococcus pneumoniae; settings: S. pneumoniae ATCC 700905, erythromycin A resistant strain; average where multiple assays
Protocol: as §1

[4] = system: E. faecalis ATCC 51575; experiment: microdilution assay MIC, E. faecalis ATCC 51575; assay type: cell-based, Enterococcus faecalis; settings: average where multiple assays
Protocol: as §2

[5] = system: S. aureus ATCC 14154; experiment: microdilution assay MIC, S. aureus ATCC 14154; assay type: cell-based, Staphylococcus aureus; settings: S. aureus ATCC 14154, erythromycin A resistant strain; average where multiple assays
Protocol: as §2

[6] = system: S. aureus ATCC 6538p; experiment: microdilution assay MIC, S. aureus ATCC 6538p; assay type: cell-based, Staphylococcus aureus; settings: erythromycin sensitive strain, average where multiple assays
Protocol: as §1

[7] = system: H. influenzae ATCC 49766; experiment: microdilution assay MIC, H. influenzae ATCC 49766; assay type: cell-based, Haemophilus influenzae; settings: average where multiple assays
Protocol: as §1

[8] = system: H. influenzae ATCC 9006; experiment: microdilution assay MIC, H. influenzae ATCC 9006; assay type: cell-based, Haemophilus influenzae; settings: average where multiple assays
Protocol: as §1

[9] = system: S. pneumoniae ATCC 6301; experiment: microdilution assay MIC, S. pneumoniae ATCC 6301; assay type: cell-based, Streptococcus pneumoniae; settings: S. pneumoniae ATCC 6301, erythromycin sensitive strain; average where multiple assays
Protocol: as §1

[10] = system: S. pneumoniae ATCC 49619; experiment: microdilution assay MIC, S. pneumoniae ATCC 49619; assay type: cell-based, Streptococcus pneumoniae; settings: S. pneumoniae ATCC 49619, erythromycin sensitive strain; average where multiple assays
Protocol: as §1

[11] = system: S. aureus ATCC 29213; experiment: microdilution assay MIC, S. aureus ATCC 29213; assay type: cell-based, Staphylococcus aureus; settings: S. aureus ATCC 29213, erythromycin sensitive strain; average where multiple assays
Protocol: as §1

[12] = system: S. epidermidis ATCC 12228; experiment: microdilution assay MIC, S. epidermidis ATCC 12228; assay type: cell-based, Staphylococcus epidermidis; settings: average where multiple assays
Protocol: as §1

[13] = system: S. pneumoniae ATCC 700677; experiment: microdilution assay MIC, S. pneumoniae ATCC 700677; assay type: cell-based, Streptococcus pneumoniae; settings: S. pneumoniae ATCC 700677, erythromycin A resistant strain; average where multiple assays
Protocol: as §1

[14] = system: S. pneumoniae ATCC 700676; experiment: microdilution assay MIC, S. pneumoniae ATCC 700676; assay type: cell-based, Streptococcus pneumoniae; settings: S. pneumoniae ATCC 700676, erythromycin A resistant strain; average where multiple assays
Protocol: as §1

Row | SMILES | MIC [1] [µg/mL] | MIC [2] [µg/mL] | MIC [3] [µg/mL] | MIC [4] [µg/mL] | MIC [5] [µg/mL] | MIC [6] [µg/mL] | MIC [7] [µg/mL] | MIC [8] [µg/mL] | MIC [9] [µg/mL] | MIC [10] [µg/mL] | MIC [11] [µg/mL] | MIC [12] [µg/mL] | MIC [13] [µg/mL] | MIC [14] [µg/mL]
1 | COC1(C)CC(C)C(=O)C(C)C2NC(=O)OC2(C)C(CCN(C)CCc2cccc(-c3ccco3)c2)OC(=O)C(C)C(=O)C(C)C1OC1OC(C)CC(N(C)C)C1O (stereo not drawn) [Compound 103] | 0.049 | >12.5 | 0.049 | 12.5 | 0.39 | 0.098 | >12.5 | >12.5 | 0.049 | 0.049 | 0.39 | 0.049 | 0.098 | 0.049
2 | COC1(C)CC(C)C(=O)C(C)C2NC(=O)OC2(C)C(CCNC(=O)Nc2cccc3ccccc23)OC(=O)C(C)C(=O)C(C)C1OC1OC(C)CC(N(C)C)C1O (stereo not drawn) [Compound 119] | 0.049 | 0.098 | 0.025 |  |  |  | 3.12 | 6.25 | 0.025 | 0.025 |  |  | 0.78 | 0.049
3 | COC1(C)CC(C)C(=O)C(C)C2NC(=O)OC2(C)C(CCNC(=O)Oc2cccc(-c3ccncc3)c2)OC(=O)C(C)C(=O)C(C)C1OC1OC(C)CC(N(C)C)C1O (stereo not drawn) [Compound 110] | 0.025 | 0.049 | 0.025 |  |  |  | 3.12 | 1.56 | 0.025 | 0.025 |  |  | 0.025 | 0.025
4 | COC(=O)NCCC1OC(=O)C(C)C(=O)C(C)C(OC2OC(C)CC(N(C)C)C2O)C(C)(OC)CC(C)C(=O)C(C)C2NC(=O)OC12C (stereo not drawn) [Compound 118] | 0.049 | >12.5 | 0.98 |  | 0.39 | 0.49 | 3.12 | 6.25 | 0.025 | 0.049 |  |  | 0.39 | 0.098
5 | CC[C@H]1OC(=O)[C@H](C)[C@@H](O[C@H]2C[C@@](C)(OC)[C@@H](O)[C@H](C)O2)[C@H](C)[C@@H](O[C@@H]2O[C@H](C)C[C@H](N(C)C)[C@H]2O)[C@](C)(O)C[C@@H](C)C(=O)[C@H](C)[C@@H](O)[C@]1(C)O [Ery A, erythromycin A, reference compound] | 0.049 |  | 3.12 |  |  | 0.098 | 6.25 | 1.56 | 0.025 | 0.049 | 0.20 | 0.20 | 6.25 | 6.25
6 | COC1(C)CC(C)C(=O)C(C)C2NC(=O)OC2(C)C(CCNC(=O)OCC(C)C)OC(=O)C(C)C(=O)C(C)C1OC1OC(C)CC(N(C)C)C1O (stereo not drawn) [Compound 117] | 0.098 | >12.5 | 0.025 |  |  |  | 6.25 | 6.25 | 0.025 | 0.025 |  |  | >12.5 | 0.025
7 | COC1(C)CC(C)C(=O)C(C)C2NC(=O)OC2(C)C(CCNS(=O)(=O)c2ccc3ccccc3c2)OC(=O)C(C)C(=O)C(C)C1OC1OC(C)CC(N(C)C)C1O (stereo not drawn) [Compound 107] | 0.01 | 3.12 | 0.01 | 0.025 | 1.56 | 0.01 | 12.5 | 12.5 | 0.01 | 0.01 | 0.025 | 0.025 | 0.01 | 0.01
8 | COC1(C)CC(C)C(=O)C(C)C2NC(=O)OC2(C)C(CCNC(=O)Oc2cccc(-c3cccnc3)c2)OC(=O)C(C)C(=O)C(C)C1OC1OC(C)CC(N(C)C)C1O (stereo not drawn) [Compound 109] | 0.025 | 0.025 | 0.025 |  |  |  | 1.56 | 1.56 | 0.025 | 0.025 |  |  | 0.025 | 0.025
9 | CCN(C)CCC1OC(=O)C(C)C(=O)C(C)C(OC2OC(C)CC(N(C)C)C2O)C(C)(OC)CC(C)C(=O)C(C)C2NC(=O)OC12C (stereo not drawn) [Compound 101] | 0.39 | >12.5 | 3.12 | 6.25 | 6.25 | 6.25 |  |  | 0.2 | 0.78 | 6.25 | 6.25 | >12.5 | 6.25
10 | COC1(C)CC(C)C(=O)C(C)C2NC(=O)OC2(C)C(CCNC(=O)Oc2ccc3ccccc3c2)OC(=O)C(C)C(=O)C(C)C1OC1OC(C)CC(N(C)C)C1O (stereo not drawn) [Compound 113] | 0.025 | 0.025 | 0.025 |  |  |  | 1.56 | 1.56 | 0.025 | 0.025 |  |  | 0.025 | 0.025
11 | COC1(C)CC(C)C(=O)C(C)C2NC(=O)OC2(C)C(CCNC(=O)Oc2cccc(-c3ccccc3)c2)OC(=O)C(C)C(=O)C(C)C1OC1OC(C)CC(N(C)C)C1O (stereo not drawn) [Compound 111] | 0.025 | 0.025 | 0.025 |  |  |  | 1.56 | 1.56 | 0.025 | 0.049 |  |  | 0.025 | 0.025
12 | COC1(C)CC(C)C(=O)C(C)C2NC(=O)OC2(C)C(CCNC(=O)OCC2c3ccccc3-c3ccccc32)OC(=O)C(C)C(=O)C(C)C1OC1OC(C)CC(N(C)C)C1O (stereo not drawn) [Compound 115] | 0.025 | 0.025 | 0.025 |  |  |  | 1.56 | 0.78 | 0.025 | 0.025 |  |  | 0.025 | 0.025
13 | COC1(C)CC(C)C(=O)C(C)C2NC(=O)OC2(C)C(CCNC(=O)Oc2cccc3ccccc23)OC(=O)C(C)C(=O)C(C)C1OC1OC(C)CC(N(C)C)C1O (stereo not drawn) [Compound 114] | 0.025 | 6.25 | 0.025 |  | 0.025 | 0.025 | 3.12 |  | 0.025 | 0.049 |  |  | 0.049 | 0.098
14 | COC1(C)CC(C)C(=O)C(C)C2NC(=O)OC2(C)C(CCNC(=O)Oc2ccc(-c3ccccc3)cc2)OC(=O)C(C)C(=O)C(C)C1OC1OC(C)CC(N(C)C)C1O (stereo not drawn) [Compound 112] | 0.025 | 0.049 | 0.025 |  |  |  | 6.25 | 3.12 | 0.025 | 0.049 |  |  | 0.78 | 0.025
15 | COC1(C)CC(C)C(=O)C(C)C2NC(=O)OC2(C)C(CCNC(=O)Oc2ccc(F)cc2)OC(=O)C(C)C(=O)C(C)C1OC1OC(C)CC(N(C)C)C1O (stereo not drawn) [Compound 116] | 0.025 | 0.098 | 0.025 |  |  |  | 6.25 | 3.12 | 0.025 | 0.049 |  |  | 0.39 | 0.025
16 | COC1(C)CC(C)C(=O)C(C)C2NC(=O)OC2(C)C(CCN2CCCCC2)OC(=O)C(C)C(=O)C(C)C1OC1OC(C)CC(N(C)C)C1O (stereo not drawn) [Compound 102] | 3.12 | >12.5 | 0.098 |  |  |  | 6.25 | 3.12 | 0.098 | 0.2 |  |  | >12.5 | 0.78
